From patent publication US8470765B2, “Polypeptides and antibacterial or antiseptic use of same” (AnGes MG, Inc., priority 2009, dated 2013)
≈ marks a conversion by molar mass, not a printed value.

Experiments:
[1] = system: Acinetobacter baumanni JCM6841; details: Table 4; two tests, first/second value where not identical
[2] = system: Salmonella enteritidis IID 604; assay: microbe, parasite or virus in culture; details: Salmonella enterica, read-out: MIC Salmonella Enteritidis
[3] = system: Streptococcus pyogenes JCM5674; assay: microbe, parasite or virus in culture; details: JCM5674, read-out: MIC Streptococcus pyogenes
[4] = system: Bacteroides fragilis JCM 11019; assay: microbe, parasite or virus in culture; details: JCM11019, read-out: MIC Bacteroides fragilis
[5] = system: Bacillus subtilis NBRC3134; assay: microbe, parasite or virus in culture; details: NBRC3134, read-out: MIC Bacillus subtilis
[6] = system: Actinobacillus actinomycetemcomitans JCM2434; assay: microbe, parasite or virus in culture; details: Aggregatibacter actinomycetemcomitans, JCM2434, read-out: MIC Actinobacillus actinomycetemcomitans
[7] = system: Fusobacterium nucleatum JCM 11025; assay: microbe, parasite or virus in culture; details: JCM11025, read-out: MIC Fusobacterium nucleatum
[8] = system: Micrococcus luteus NBRC13867; assay: microbe, parasite or virus in culture; details: NBRC13867, read-out: MIC Micrococcus luteus
[9] = system: Salmonella typhimurium JCM1652; assay: microbe, parasite or virus in culture; details: Salmonella enterica, read-out: MIC Salmonella Typhimurium

`O=C(N[C@H](CO)[C@H](O)c1ccc([N+](=O)[O-])cc1)C(Cl)Cl` [chloramphenicol] was tested, and the “MIC Acinetobacter baumanni” value [1] was 16/32, the MIC [2] was 4 µg/mL (≈ 12.4 µM) and the MIC [3] was 2 µg/mL (≈ 6.19 µM). It also gave an MIC [4] of 1 µg/mL (≈ 3.09 µM), an MIC [5] of 4 µg/mL (≈ 12.4 µM) and an MIC [6] of 0.5 µg/mL (≈ 1.55 µM). It also gave an MIC [7] of 0.25 µg/mL (≈ 0.774 µM), an MIC [8] of 1 µg/mL (≈ 3.09 µM) and an MIC [9] of 4 µg/mL (≈ 12.4 µM).
